# Data as given in patent publication US8952150B2, “Prostaglandin transporter inhibitors and uses thereof” (Albert Einstein College of Medicine of Yeshiva University, priority 2009, dated 2015).
# Target: rat PGT (Rattus norvegicus (Rat), UniProt Q00910)
# Test: [3H]PGE2 uptake inhibition in MDCK cells stably transfected with rat PGT (percent inhibition and IC50)
# Format: cell-based
# Conditions: for Inh (% of Ctl) 1 μM: 1 μM compound; for Inh (% of Ctl) 10 μM: 10 μM compound; for IC50: [3H]PGE2 uptake, MDCK cells stably transfected with rat PGT; for Inh (% of Ctl) 5 μM: 5 μM compound; for Inh (% of Ctl) 0.5 μM: 0.5 μM compound
# Description: MDCK cells stably transfected with rat PGT (Endo et al., 2002) were seeded at 15-20% confluence on 24-well plates. The day on which the cells were seeded was considered day 1. PGE2 uptake experiments were conducted on day 4. All of the PGE2 uptake experiments were conducted at room temperature. On day 4, cells were washed twice with Waymouth buffer (135 mM NaCl, 13 mM H-Hepes, 13 mM Na-Hepes, 2.5 mM CaCl2, 1.2 mM MgCl2, 0.8 mM MgSO4, 5 mM KCl, and 28 mM D-glucose). Then 200 μL of Waymouth buffer containing [^3H]PGE2 (purchased from Perkin Elmer) was added to each well. At the designed time, the uptake of [^3H]PGE2 was stopped by aspiration of uptake buffer; this was followed by immediate washing twice with 500 μL of chilled Waymouth buffer. Cells were then lysed with 100 μL lysis buffer containing 0.25% SDS and 0.05 N NaOH. 1.5 mL of scintillation solution was added to each well, and intracellular [^3H]PGE2 was counted by MicroBeta Counter.
# For preliminary testing of the compounds, 20 μL of Waymouth buffer containing the compound was added to each well; this was immediately followed by the addition of 180 μL of Waymouth buffer containing [^3H]PGE2. In each well, the total volume of uptake medium was 200 μL. Organic compounds were first dissolved in EtOH and then diluted in Waymouth buffer. The percent inhibition of [^3H]PGE2 uptake by compounds was calculated as [(uptakevehicle−uptakeinhibitor)÷(uptakevehicle)]×100.
# IC50 was calculated by fitting an equation of y=m1−m1*(m0/(m2+m0)).
SMILES,Inh (% of Ctl) 1 μM (inhibition of [3H]PGE2 uptake),Inh (% of Ctl) 10 μM (inhibition of [3H]PGE2 uptake),IC50,Inh (% of Ctl) 5 μM (inhibition of [3H]PGE2 uptake),Inh (% of Ctl) 0.5 μM (inhibition of [3H]PGE2 uptake),"Inh (% of Ctl) 2.5 μM (2.5 μM compound, inhibition of [3H]PGE2 uptake)"
O=C(NCCOCCOCCNc1nc(Nc2ccccc2)nc(Nc2ccc(O)cc2)n1)c1cccs1 [compound 39],42.9 % of Ctl,86.2 % of Ctl,,,,
O=C(NCCOCCOCCNc1nc(Nc2ccccc2)nc(Nc2ccc(O)cc2)n1)c1ccc(-c2ccccc2)cc1 [compound 40],16.3 % of Ctl,46.9 % of Ctl,,,,
CC(=O)NCCOCCOCCNc1nc(Nc2ccccc2)nc(Nc2ccc(O)cc2)n1 [compound 41],0.3 % of Ctl,6.6 % of Ctl,,,,
O=C(NCCOCCOCCNc1nc(Nc2ccccc2)nc(Nc2ccc(O)cc2)n1)Nc1ccccc1 [compound 42],22.8 % of Ctl,57.6 % of Ctl,,,,
COC(=O)CCCCCCNC(=O)c1ccc(Nc2nc(NCCOCCOCCNC(=O)c3ccccc3)nc(Nc3ccc(O)cc3)n2)cc1 [compound 43],34.8 % of Ctl,84.1 % of Ctl,1300 nM,,,
CCCCCCNC(=O)c1ccc(Nc2nc(NCCOCCOCCNC(=O)c3ccccc3)nc(Nc3ccc(O)cc3)n2)cc1 [compound 44],65.0 % of Ctl,77.5 % of Ctl,760 nM,,,
NCCOCCOCCNc1nc(Nc2ccccc2)nc(Nc2ccc(O)cc2)n1 [compound 45],5.0 % of Ctl,12.9 % of Ctl,,,,
NS(=O)(=O)c1ccc(Nc2nc(NCCOCCOCCNC(=O)c3ccccc3)nc(Nc3ccc(O)cc3)n2)cc1 [compound 46],4.1 % of Ctl,32.4 % of Ctl,,,,
COC(=O)COCCOCCNC(=O)c1ccc(Nc2nc(NCCOCCOCCNC(=O)c3ccccc3)nc(Nc3ccc(O)cc3)n2)cc1 [compound 47],22.6 % of Ctl,76.5 % of Ctl,,,,
O=C(O)CCCCCCNC(=O)c1ccc(Nc2nc(NCCOCCOCCNC(=O)c3ccccc3)nc(Nc3ccc(O)cc3)n2)cc1 [compound 48],14.2 % of Ctl,62.8 % of Ctl,,,,
COC(=O)COCCOCCNc1nc(Nc2ccccc2)nc(Nc2ccc(O)cc2)n1 [compound 49],1.7 % of Ctl,12.5 % of Ctl,,,,
COC(=O)CCCCCCNc1nc(Nc2ccccc2)nc(Nc2ccc(O)cc2)n1 [compound 50],9.3 % of Ctl,15.1 % of Ctl,,,,
O=C(O)COCCOCCNc1nc(Nc2ccccc2)nc(Nc2ccc(O)cc2)n1 [compound 51],17.4 % of Ctl,29.8 % of Ctl,,,,
O=C(O)CCCCCCNc1nc(Nc2ccccc2)nc(Nc2ccc(O)cc2)n1 [compound 52],0.1 % of Ctl,1.8 % of Ctl,,,,
O=C(NCCOCCOCCNc1nc(Nc2ccccc2)nc(Nc2ccc3cn[nH]c3c2)n1)c1ccccc1 [compound 53],65.2 % of Ctl,86.4 % of Ctl,4040 nM,83.4 % of Ctl,,
O=C(NCCOCCOCCNc1nc(Nc2ccccc2)nc(Nc2ccc(-c3nnn[nH]3)cc2)n1)c1ccccc1 [compound 54],33.7 % of Ctl,52.2 % of Ctl,,,,
CCCCCCNc1nc(Nc2ccccc2)nc(Nc2ccc(O)cc2)n1 [compound 55],12.7 % of Ctl,26.1 % of Ctl,,,,
O=C(NCCOCCOCCNc1nc(Nc2ccccc2)nc(Nc2ccc(O)c(Cl)c2)n1)c1ccccc1 [compound 56],38.0 % of Ctl,80.5 % of Ctl,,,,

SMILES,Inh (% of Ctl) 1 μM (inhibition of [3H]PGE2 uptake),Inh (% of Ctl) 10 μM (inhibition of [3H]PGE2 uptake),IC50,Inh (% of Ctl) 5 μM (inhibition of [3H]PGE2 uptake),Inh (% of Ctl) 0.5 μM (inhibition of [3H]PGE2 uptake),"Inh (% of Ctl) 2.5 μM (2.5 μM compound, inhibition of [3H]PGE2 uptake)"
O=C(O)Cc1ccc(Nc2nc(NCCOCCOCCNC(=O)c3ccccc3)nc(Nc3ccccc3)n2)cc1 [compound 57],27.4 % of Ctl,56.6 % of Ctl,5570 nM,29.5 % of Ctl,,
O=C(O)c1ccc(Nc2nc(NCCOCCOCCNC(=O)c3ccccc3)nc(Nc3ccccc3)n2)cc1 [compound 58],16.25 % of Ctl,52.5 % of Ctl,,41.0 % of Ctl,,
O=C(NCCOCCNc1nc(Nc2ccccc2)nc(Nc2ccc(O)cc2)n1)c1ccccc1 [compound 59],36.8 % of Ctl,75.8 % of Ctl,2460 nM,,,
COC(=O)Cc1ccc(Nc2nc(NCCOCCOCCNC(=O)c3ccccc3)nc(Nc3ccccc3)n2)cc1 [compound 60],7.2 % of Ctl,34.5 % of Ctl,,,,
COC(=O)c1ccc(Nc2nc(NCCOCCOCCNC(=O)c3ccccc3)nc(Nc3ccccc3)n2)cc1 [compound 61],7.5 % of Ctl,46.1 % of Ctl,,,,
O=C(NCCCCCCNc1nc(Nc2ccccc2)nc(Nc2ccc(O)cc2)n1)c1ccccc1 [compound 62],20.4 % of Ctl,50.1 % of Ctl,,,,
O=C(NCCCCCCCNc1nc(Nc2ccccc2)nc(Nc2ccc(O)cc2)n1)c1ccccc1 [compound 63],11.0 % of Ctl,44.1 % of Ctl,,,,
O=C(NCCOCCOCCNc1nc(Nc2ccc(C(=O)NCc3ccccc3)cc2)nc(Nc2ccc3[nH]ncc3c2)n1)c1ccccc1 [compound 64],71.6 % of Ctl,90.2 % of Ctl,115 nM,77.2 % of Ctl,15.5 % of Ctl,
CCCCCCNC(=O)c1ccc(Nc2nc(NCCOCCOCCNC(=O)c3ccccc3)nc(Nc3ccc4[nH]ncc4c3)n2)cc1 [compound 65],66.4 % of Ctl,90.0 % of Ctl,1380 nM,84.0 % of Ctl,18.4 % of Ctl,
CC(C)(NC(=O)c1ccc(Nc2nc(NCCOCCOCCNC(=O)c3ccccc3)nc(Nc3ccc(O)cc3)n2)cc1)c1ccccc1 [compound 66],,,,64.4 % of Ctl,10.9 % of Ctl,
O=C(NCCOCCOCCNc1nc(Nc2ccc(O)cc2)nc(Nc2ccc(C(=O)NCc3cccnc3)cc2)n1)c1ccccc1 [compound 67],,,,76.1 % of Ctl,13.4 % of Ctl,
CN(Cc1ccccc1)C(=O)c1ccc(Nc2nc(NCCOCCOCCNC(=O)c3ccccc3)nc(Nc3ccc(O)cc3)n2)cc1 [compound 68],,,,70.8 % of Ctl,15.0 % of Ctl,
O=C(NCCOCCOCCNc1nc(Nc2ccc(O)cc2)nc(Nc2ccc(C(=O)OCc3ccccc3)cc2)n1)c1ccccc1 [compound 69],,,890 nM,83.2 % of Ctl,24.9 % of Ctl,
O=C(NCCOCCOCCNc1nc(Nc2ccc(O)cc2)nc(Nc2ccc(C(=O)NCc3ccccn3)cc2)n1)c1ccccc1 [compound 70],,,1050 nM,84.0 % of Ctl,21.2 % of Ctl,
O=C(NCCOCCOCCNc1nc(Nc2ccc(O)cc2)nc(Nc2ccc(C(=O)NCc3ccncc3)cc2)n1)c1ccccc1 [compound 71],,,,78.4 % of Ctl,16.7 % of Ctl,
O=C(NCCOCCOCCNc1nc(Nc2ccccc2)nc(Nc2ccc(O)cc2)n1)c1ccccc1C(F)(F)F [compound 72],19.7 % of Ctl,75.3 % of Ctl,,66.1 % of Ctl,,
COC(=O)[C@H](NC(=O)c1ccc(Nc2nc(NCCOCCOCCNC(=O)c3ccccc3)nc(Nc3ccc(O)cc3)n2)cc1)c1ccccc1 [compound 73],,,,75.3 % of Ctl,,38.9 % of Ctl
